Results: patent publication US20240285737A1, “IMPROVED METHODS OF TREATMENT USING IMMUNOGENIC PEPTIDES” (IMCYSE SA, priority 2021, published 2024)

System: proinsulin epitope C20-A1-specific CD4+ T cells
Experiment: FACS quantification of CD4+ T cells responding to proinsulin epitope C20-A1 stimulation in PBMCs of T1D patients treated with IMP or placebo
Format: in vivo, human
Conditions: visits 3 to 6 (impact of administrations 3 to 6)
Description: 84 HLA DR4+ adult participants are randomly assigned (1:1:1) to one of the three treatment arms: placebo, investigational medicinal product (IMP) 450 μg and IMP 1350 μg (=the main study). All participants receive 6 administrations of IMP or placebo with a 2-week interval between each administration. At 24 weeks participants receive a boost injection. While treated participants receive a boost administration equivalent to the dose they have been randomized to, placebo participants receive a placebo boost. The participants were followed up to 48 weeks (FIG. 1).
Treatment consists of six administrations (separated by 14 days) of the IMP or the placebo by SC route. […]
Patient blood samples collected at six time points (visit V-1 or the baseline which was prior to immunization, and visits V2 to V6 which were two weeks after 2, 3, 4, 5 or 6 injections respectively) was used to quantify CD4+ T cells responding to proinsulin epitope C20-A1 stimulation. […]
Fluorescent activated cell sorting (FACS) analysis was performed to quantify CD4+ T cells that respond to proinsulin epitope stimulation. […] In a proinsulin epitope C20-A1-stimulated sample, the “net % of responding CD4+ T cells” was calculated as the % of CD4+ T cells with an effector or regulatory phenotype in the stimulated sample minus the % of CD4+ T cells with effector or regulatory phenotype in the corresponding unstimulated sample. […]

Question: Which “net % of responding CD4+ T cells in IMP treated as compared to Placebo treated patients at individual time points” value does the source give for HCPYCSLQPLALEGSLQKRG [IMP] here?
Answer: trend of greater net % of responding CD4+ T cells
